Measurements: ChEMBL document CHEMBL3217528, “Bicyclic imidazole-4-one derivatives: a new class of antagonists for the orphan G protein-coupled receptors GPR18 and GPR55” (Medchemcomm, 2014)
The source made the active and inactive calls. No cut-off for these calls is given here.

Tests used:
[1] = target: T1, G-protein coupled receptor 55 (Homo sapiens, UniProt Q9Y2T6); experiment: Allosteric antagonist activity against human GPR55 expressed in CHO cells assessed as induction of rightward shift of concentration response curve of LPI-induced beta-arrestin recruitment at 10 uM by beta-galactosidase enzyme fragment complementation method; assay type: cell-based
T1 sequence (Q9Y2T6 whole entry, the tested form may be a part): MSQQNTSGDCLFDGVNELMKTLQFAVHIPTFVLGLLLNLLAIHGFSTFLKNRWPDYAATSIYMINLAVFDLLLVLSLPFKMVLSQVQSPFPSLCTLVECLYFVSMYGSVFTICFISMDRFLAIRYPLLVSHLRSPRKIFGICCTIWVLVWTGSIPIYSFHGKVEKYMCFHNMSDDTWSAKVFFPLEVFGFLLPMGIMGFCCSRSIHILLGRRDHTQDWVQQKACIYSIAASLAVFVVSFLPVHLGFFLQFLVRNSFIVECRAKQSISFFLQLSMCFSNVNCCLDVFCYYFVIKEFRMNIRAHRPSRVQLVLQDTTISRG

[2] = target: T2, G-protein coupled receptor 35 (Homo sapiens, UniProt Q9HC97); experiment: Antagonist activity at human GPR35 assessed as reduction of zaprinast-induced beta-arrestin recruitment by beta-galactosidase enzyme fragment complementation method relative to untreated control; set-up: concentration or dose not given beside the values; details: concentration not given here
T2 sequence (Q9HC97 whole entry, the tested form may be a part): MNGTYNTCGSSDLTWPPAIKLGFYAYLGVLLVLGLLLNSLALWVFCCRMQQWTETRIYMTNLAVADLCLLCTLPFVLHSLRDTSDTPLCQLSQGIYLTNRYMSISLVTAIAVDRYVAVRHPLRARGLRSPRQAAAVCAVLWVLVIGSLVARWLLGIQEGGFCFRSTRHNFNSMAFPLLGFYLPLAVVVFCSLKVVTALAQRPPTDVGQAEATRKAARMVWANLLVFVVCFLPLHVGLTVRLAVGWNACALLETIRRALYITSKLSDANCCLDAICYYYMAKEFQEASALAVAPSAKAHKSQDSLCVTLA

Rattus norvegicus = organism: Rattus norvegicus; experiment: Displacement of [3H]diazepam from GABAA receptor in rat brain cortical membranes at 10 uM; assay type: cell membranes
[3] = target: T2, G-protein coupled receptor 35; experiment: Agonist activity at human GPR35 assessed as induction of beta-arrestin recruitment by beta-galactosidase enzyme fragment complementation method
[4] = target: T1, G-protein coupled receptor 55; experiment: Agonist activity at human GPR55 expressed in CHO cells assessed as induction of LPI-induced beta-arrestin recruitment by beta-galactosidase enzyme fragment complementation method relative to LPI; assay type: cell-based; set-up: concentration or dose not given beside the values
[5] = target: T3, N-arachidonyl glycine receptor (Homo sapiens) (UniProt Q14330); experiment: Agonist activity at human GPR18 expressed in CHO cells assessed as induction of beta-arrestin recruitment by beta-galactosidase enzyme fragment complementation method relative to delta9-THC; assay type: cell-based; set-up: concentration or dose not given beside the values
T3 sequence (whole entry): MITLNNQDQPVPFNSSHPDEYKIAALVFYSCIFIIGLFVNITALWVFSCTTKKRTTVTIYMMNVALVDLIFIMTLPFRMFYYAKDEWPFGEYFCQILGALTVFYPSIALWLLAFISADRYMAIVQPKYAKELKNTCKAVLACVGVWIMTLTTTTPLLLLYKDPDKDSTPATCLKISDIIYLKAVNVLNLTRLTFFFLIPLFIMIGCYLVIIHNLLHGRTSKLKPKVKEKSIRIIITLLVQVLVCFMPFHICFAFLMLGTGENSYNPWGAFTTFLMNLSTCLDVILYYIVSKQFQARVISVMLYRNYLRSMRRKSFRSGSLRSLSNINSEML

Cannabinoid receptor 2 [6] = target: T4, Cannabinoid receptor 2 (Homo sapiens, UniProt P34972); experiment: Displacement of [3H]CP55,940 from human recombinant CB2 receptor expressed in HEK293 cells at 10 uM; assay type: cell-based
T4 sequence (P34972 whole entry, the tested form may be a part): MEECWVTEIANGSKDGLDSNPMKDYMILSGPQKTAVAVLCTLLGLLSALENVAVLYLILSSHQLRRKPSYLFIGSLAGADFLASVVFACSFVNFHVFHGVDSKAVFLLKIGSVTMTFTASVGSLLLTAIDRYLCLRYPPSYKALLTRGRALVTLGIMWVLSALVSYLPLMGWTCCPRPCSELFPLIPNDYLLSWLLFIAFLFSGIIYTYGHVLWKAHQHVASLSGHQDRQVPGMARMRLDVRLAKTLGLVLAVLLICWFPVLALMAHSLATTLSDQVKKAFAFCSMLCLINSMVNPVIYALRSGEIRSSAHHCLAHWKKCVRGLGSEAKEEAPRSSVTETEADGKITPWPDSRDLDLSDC

[7] = target: T5, N-arachidonyl glycine receptor (Homo sapiens, UniProt Q14330); experiment: Antagonist activity against human GPR18 expressed in CHO cells assessed as reduction in delta9-THC-induced beta-arrestin recruitment by beta-galactosidase enzyme fragment complementation method; assay type: cell-based
T5 sequence (Q14330 whole entry): T3 sequence (whole entry)

[8] = target: T2, G-protein coupled receptor 35; experiment: Agonist activity at human GPR35 assessed as induction of beta-arrestin recruitment by beta-galactosidase enzyme fragment complementation method relative to zaprinast; set-up: concentration or dose not given beside the values
[9] = target: T1, G-protein coupled receptor 55; experiment: Inverse agonist activity against human GPR55 expressed in CHO cells assessed as reduction in LPI-induced beta-arrestin recruitment at 10 uM by beta-galactosidase enzyme fragment complementation method; assay type: cell-based
[10] = target: T1, G-protein coupled receptor 55; experiment: Antagonist activity against human GPR55 expressed in CHO cells assessed as reduction in LPI-induced beta-arrestin recruitment by beta-galactosidase enzyme fragment complementation method; assay type: cell-based
Cannabinoid receptor 1 [11] = target: T6, Cannabinoid receptor 1 (Homo sapiens, UniProt P21554); experiment: Displacement of [3H]CP55,940 from human recombinant CB1 receptor expressed in CHO-K1 cells at 10 uM; assay type: cell-based
T6 sequence (P21554 whole entry): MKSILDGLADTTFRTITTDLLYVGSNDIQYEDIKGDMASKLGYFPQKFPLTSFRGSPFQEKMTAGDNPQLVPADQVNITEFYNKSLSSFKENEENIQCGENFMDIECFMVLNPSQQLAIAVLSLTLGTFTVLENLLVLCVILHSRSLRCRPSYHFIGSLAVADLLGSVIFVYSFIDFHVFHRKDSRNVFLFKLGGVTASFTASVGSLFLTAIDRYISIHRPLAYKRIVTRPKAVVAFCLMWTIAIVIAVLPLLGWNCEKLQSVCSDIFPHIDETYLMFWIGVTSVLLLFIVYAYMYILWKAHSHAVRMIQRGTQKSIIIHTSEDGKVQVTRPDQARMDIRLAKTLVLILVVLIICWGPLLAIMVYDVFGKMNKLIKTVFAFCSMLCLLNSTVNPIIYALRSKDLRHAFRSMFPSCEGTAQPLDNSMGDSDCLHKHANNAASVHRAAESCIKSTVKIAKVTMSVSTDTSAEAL

Cannabinoid receptor 2 [12] = target: T4, Cannabinoid receptor 2; experiment: Displacement of [3H]CP55,940 from human recombinant CB2 receptor expressed in HEK293 cells; assay type: cell-based
[13] = Displacement of [3H]diazepam from GABAA receptor in rat brain cortical membranes; assay type: cell membranes
[14] = target: T3, N-arachidonyl glycine receptor (Homo sapiens); experiment: Antagonist activity against human GPR18 expressed in CHO cells assessed as reduction in delta9-THC-induced beta-arrestin recruitment at 10 uM by beta-galactosidase enzyme fragment complementation method; assay type: cell-based
Cannabinoid receptor 1 [15] = target: T6, Cannabinoid receptor 1; experiment: Displacement of [3H]CP55,940 from human recombinant CB1 receptor expressed in CHO-K1 cells; assay type: cell-based
[16] = target: T2, G-protein coupled receptor 35; experiment: Antagonist activity at human GPR35 assessed as reduction of zaprinast-induced beta-arrestin recruitment by beta-galactosidase enzyme fragment complementation method
[17] = target: Cannabinoid receptor 1 (Rattus norvegicus) (UniProt P20272); experiment: Displacement of [3H]CP55,940 from CB1 receptor in rat brain cortical membranes at 10 uM; assay type: cell membranes
Sequence of Cannabinoid receptor 1 (Rattus norvegicus) (P20272 whole entry, the tested form may be a part): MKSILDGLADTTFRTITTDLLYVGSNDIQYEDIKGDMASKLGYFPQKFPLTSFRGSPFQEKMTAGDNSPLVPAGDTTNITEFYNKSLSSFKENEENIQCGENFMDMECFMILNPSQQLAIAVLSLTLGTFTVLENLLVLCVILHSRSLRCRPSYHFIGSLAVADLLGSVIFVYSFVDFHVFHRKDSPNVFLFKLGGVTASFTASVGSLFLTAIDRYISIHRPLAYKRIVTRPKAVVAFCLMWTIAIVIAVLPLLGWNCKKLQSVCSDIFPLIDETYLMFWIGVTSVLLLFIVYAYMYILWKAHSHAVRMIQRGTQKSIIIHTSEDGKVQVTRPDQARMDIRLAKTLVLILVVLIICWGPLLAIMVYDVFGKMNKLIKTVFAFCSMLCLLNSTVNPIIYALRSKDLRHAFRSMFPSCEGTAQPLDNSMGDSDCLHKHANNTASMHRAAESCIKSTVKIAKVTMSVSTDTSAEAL

Cannabinoid receptor 1 [18] = target: Cannabinoid receptor 1 (Rattus norvegicus, UniProt P20272); experiment: Displacement of [3H]CP55,940 from CB1 receptor in rat brain cortical membranes; assay type: cell membranes
Sequence of Cannabinoid receptor 1 (Rattus norvegicus, UniProt P20272) (P20272 whole entry): as the sequence (P20272 whole entry, the tested form may be a part) above

[19] = target: T1, G-protein coupled receptor 55; experiment: Agonist activity at human GPR55 expressed in HEK293 cells assessed as increase in oscillation Ca2+ transients by fura-2 dye based fluorescence analysis; assay type: functional, cell-based
Cannabinoid receptor 2 [20] = target: T4, Cannabinoid receptor 2; experiment: Intrinsic activity at human recombinant CB2 receptor expressed in HEK293 cell membranes assessed as stimulation of [35S]GTPgammaS binding at 10 uM by liquid scintillation counting method relative to CP55,940; assay type: functional
[21] = target: Cannabinoid receptor 1 (Rattus norvegicus) (UniProt P20272); experiment: Intrinsic activity at CB1 receptor in rat brain cortical membranes assessed as stimulation of [35S]GTPgammaS binding at 10 uM by liquid scintillation counting method relative to CP55,940; assay type: functional, cell membranes
[22] = target: T1, G-protein coupled receptor 55; experiment: Agonist activity at human GPR55 expressed in CHO cells assessed as induction of LPI-induced beta-arrestin recruitment by beta-galactosidase enzyme fragment complementation method; assay type: cell-based
Cannabinoid receptor 1 [23] = target: T6, Cannabinoid receptor 1; experiment: Intrinsic activity at human recombinant CB1 receptor expressed in HEK293 cell membranes assessed as stimulation of [35S]GTPgammaS binding at 10 uM by liquid scintillation counting method relative to CP55,940; assay type: functional
Cannabinoid receptor 1 [24] = target: T6, Cannabinoid receptor 1; experiment: Agonist activity at human recombinant CB1 receptor expressed in CHO-K1 cell membranes assessed effect on forskolin-induced cAMP accumulation at 10 uM; assay type: functional, cell-based
[25] = target: T5, N-arachidonyl glycine receptor; experiment: Agonist activity at human GPR18 expressed in […] cells by MAP kinase assay; assay type: cell-based
[26] = target: T1, G-protein coupled receptor 55; experiment: Inverse agonist activity against human GPR55 expressed in CHO cells assessed as reduction in LPI-induced beta-arrestin recruitment at 30 uM by beta-galactosidase enzyme fragment complementation method; assay type: cell-based
[27] = target: T1, G-protein coupled receptor 55; experiment: Antagonist activity against human GPR55 expressed in CHO cells assessed as reduction in LPI-induced beta-arrestin recruitment at 10 uM by beta-galactosidase enzyme fragment complementation method; assay type: cell-based
[28] = target: T5, N-arachidonyl glycine receptor; experiment: Agonist activity at human GPR18 expressed in CHO cells assessed as induction of beta-arrestin recruitment by beta-galactosidase enzyme fragment complementation method; assay type: cell-based
Cannabinoid receptor 2 [29] = target: T4, Cannabinoid receptor 2; experiment: Agonist activity at human recombinant CB2 receptor expressed in CHO-K1 cell membranes assessed effect on forskolin-induced cAMP accumulation at 10 uM; assay type: functional, cell-based

SMILES: O=C1/C(=C/c2cccc(F)c2F)N=C2SCCCN12
- Allosteric antagonist activity [1]: Active
- inhibition [2]: 17%
- inhibition (Rattus norvegicus): 24%
- EC50 [3]: > 10 µM
- Activity [4]: 0%
- Activity [5]: 4%
- inhibition (Cannabinoid receptor 2 [6]): 0%
- IC50 [7]: > 10 µM
- Activity [8]: -4%
- inhibition [9]: Active
- IC50 [10]: 3.15 µM
- inhibition (Cannabinoid receptor 1 [11]): 7%
- Ki (Cannabinoid receptor 2 [12]): > 10 µM
- Ki [13]: > 10 µM
- inhibition [14]: 3%
- Ki (Cannabinoid receptor 1 [15]): > 10 µM
- IC50 [16]: > 10 µM

SMILES: O=C1/C(=C/c2cccc(Cl)c2Cl)N=C2SCCCN12
- inhibition [17]: 6%
- Allosteric antagonist activity [1]: Active
- Activity [4]: 3%
- Activity [5]: 17%
- inhibition (Cannabinoid receptor 2 [6]): 40%
- IC50 [7]: > 10 µM
- IC50 [10]: 6.91 µM
- inhibition (Cannabinoid receptor 1 [11]): 12%
- Ki (Cannabinoid receptor 2 [12]): > 10 µM
- inhibition [14]: 0%
- Ki (Cannabinoid receptor 1 [18]): > 10 µM
- Ki (Cannabinoid receptor 1 [15]): > 10 µM

SMILES: Cc1c(C(=O)NN2CCCCC2)nn(-c2ccc(Cl)cc2Cl)c1-c1ccc(I)cc1
- EC50 [19]: 0.63 µM

SMILES: O=C1/C(=C/c2ccccc2Cl)N=C2SCCCN12
- inhibition [17]: 5%
- Allosteric antagonist activity [1]: Active
- inhibition [2]: 49%
- EC50 [3]: > 10 µM
- Activity [4]: 27%
- Activity [5]: 20%
- inhibition (Cannabinoid receptor 2 [6]): 21%
- IC50 [7]: > 10 µM
- Activity [8]: -22%
- IC50 [10]: 5.09 µM
- inhibition (Cannabinoid receptor 1 [11]): 0%
- Ki (Cannabinoid receptor 2 [12]): > 10 µM
- Ki [13]: 4.15 µM
- inhibition [14]: 6%
- Ki (Cannabinoid receptor 1 [18]): > 10 µM
- Ki (Cannabinoid receptor 1 [15]): > 10 µM
- IC50 [16]: ≥ 10 µM

SMILES: O=C1/C(=C/c2cccc(OCc3ccc(Cl)cc3)c2)N=C2SCCCCN12
- Intrinsic activity (Cannabinoid receptor 2 [20]): -59%
- inhibition [2]: 1%
- Intrinsic activity [21]: -15%
- EC50 [3]: > 10 µM
- Activity [4]: 70%
- Activity [5]: 0%
- IC50 [7]: > 10 µM
- Activity [8]: 6%
- EC50 [22]: 10.7 µM
- Intrinsic activity (Cannabinoid receptor 1 [23]): -40%
- Ki (Cannabinoid receptor 2 [12]): 4.15 µM
- Ki [13]: > 10 µM
- inhibition [14]: 31%
- Ki (Cannabinoid receptor 1 [18]): 0.82 µM
- Ki (Cannabinoid receptor 1 [15]): 0.25 µM
- Activity (Cannabinoid receptor 1 [24]): inactive
- IC50 [16]: > 10 µM

SMILES: CCCCCc1cc(O)c2c(c1)OC(C)(C)[C@@H]1CCC(C)=C[C@@H]21 [DRONABINOL]
- EC50 [22]: 14.2 µM
- EC50 [25]: 0.96 µM

SMILES: O=C1/C(=C/c2ccc(F)cc2F)N=C2SCCCN12
- Allosteric antagonist activity [1]: Active
- inhibition [26]: Active
- inhibition (Rattus norvegicus): 34%
- Activity [4]: 0%
- Activity [5]: 11%
- inhibition (Cannabinoid receptor 2 [6]): 0%
- IC50 [7]: > 10 µM
- IC50 [10]: 3.46 µM
- inhibition (Cannabinoid receptor 1 [11]): 13%
- Ki (Cannabinoid receptor 2 [12]): > 10 µM
- Ki [13]: > 10 µM
- inhibition [14]: 6%
- Ki (Cannabinoid receptor 1 [15]): > 10 µM

SMILES: CCCCC/C=C\C/C=C\C/C=C\C/C=C\CCCC(=O)O[C@H](CO)COP(=O)(O)O[C@@H]1[C@@H](O)[C@H](O)[C@@H](O)[C@H](O)[C@@H]1O
- inhibition (Cannabinoid receptor 2 [6]): 0%
- IC50 [7]: > 10 µM
- EC50 [22]: 1 µM
- inhibition (Cannabinoid receptor 1 [11]): 0%
- Ki (Cannabinoid receptor 2 [12]): > 10 µM
- inhibition [14]: 15%
- Ki (Cannabinoid receptor 1 [15]): > 10 µM

SMILES: O=C1/C(=C/c2cccc(Cl)c2)N=C2SCCCN12
- inhibition [17]: 6%
- inhibition (Rattus norvegicus): 57%
- inhibition [27]: 42%
- Activity [4]: 9%
- Activity [5]: 0%
- inhibition (Cannabinoid receptor 2 [6]): 2%
- IC50 [7]: > 10 µM
- IC50 [10]: ≥ 10 µM
- inhibition (Cannabinoid receptor 1 [11]): 30%
- Ki (Cannabinoid receptor 2 [12]): > 10 µM
- Ki [13]: 10 µM
- inhibition [14]: 14%
- Ki (Cannabinoid receptor 1 [18]): > 10 µM
- Ki (Cannabinoid receptor 1 [15]): > 10 µM

SMILES: Cc1c(C(=O)NN2CCCCC2)nn(-c2ccc(Cl)cc2Cl)c1-c1ccc(Cl)cc1 [RIMONABANT]
- EC50 [28]: 10.1 µM

SMILES: Cc1c(C(=O)NN2CCOCC2)nn(-c2ccc(Cl)cc2Cl)c1-c1ccc(I)cc1
- Activity (Cannabinoid receptor 2 [29]): inactive
- Intrinsic activity [21]: -42%
- Intrinsic activity (Cannabinoid receptor 1 [23]): -80%
- EC50 [19]: 13.6 µM
- Activity (Cannabinoid receptor 1 [24]): inactive

SMILES: CCCCCCC(C)(C)c1ccc([C@@H]2C[C@H](O)CC[C@H]2CCCO)c(O)c1 [CP-55940]
- Activity (Cannabinoid receptor 2 [29]): Active
- EC50 [22]: 1.61 µM
- EC50 [28]: 5.99 µM
- Activity (Cannabinoid receptor 1 [24]): Active
